Reference: PubChem BioAssay (NCI)
Where “and” joins values, the source holds several entries; their conditions need not be identical. Identical values can stand only once.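 Grown in 96-well plates, cells were treated for 48 hours with each compound at five concentrations. Insufficient inhibition: endpoint recorded as highest concentration tested. The concentration for 50% growth inhibition is given as GI50. TGI is the concentration that stops growth completely.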

Tests used:
Test in all cases: NCI anticancer screen, dose series, 48 h
OVCAR-8 ovarian = test system: OVCAR-8 ovarian
HCT-116 colon = test system: HCT-116 colon
SK-OV-3 ovarian = test system: SK-OV-3 ovarian
CAKI-1 renal = test system: CAKI-1 renal
SN12C renal = test system: SN12C renal
OVCAR-3 ovarian = test system: OVCAR-3 ovarian
NCI-H522 lung = test system: NCI-H522 lung
A498 renal = test system: A498 renal
COLO 205 colon = test system: COLO 205 colon
T-47D breast = test system: T-47D breast

| Structure (SMILES) | TGI (OVCAR-8 ovarian) | TGI (HCT-116 colon) | TGI (SK-OV-3 ovarian) | TGI (CAKI-1 renal) | TGI (SN12C renal) | TGI (OVCAR-3 ovarian) | TGI (NCI-H522 lung) | TGI (A498 renal) | TGI (COLO 205 colon) | GI50 (OVCAR-8 ovarian) [µM] | GI50 (HCT-116 colon) [µM] | GI50 (SK-OV-3 ovarian) [µM] | GI50 (CAKI-1 renal) [µM] | GI50 (SN12C renal) [µM] | GI50 (OVCAR-3 ovarian) [µM] | GI50 (NCI-H522 lung) | GI50 (A498 renal) [µM] | GI50 (COLO 205 colon) [µM] | GI50 (T-47D breast) [µM] | TGI (T-47D breast) [µM] |
| --- | --- | --- | --- | --- | --- | --- | --- | --- | --- | --- | --- | --- | --- | --- | --- | --- | --- | --- | --- | --- |
| Cc1nc2c(=O)[nH]c(=O)n(C)c2[nH]c1=O | > 100 µM | > 100 µM | > 100 µM | > 100 µM | > 100 µM | > 100 µM | > 100 µM | > 100 µM | > 100 µM |  |  |  |  |  |  |  |  |  |  |  |
| NCCCN(CCCN)CCCNCc1c2ccccc2c(CNCCCN(CCCN)CCCN)c2ccccc12 | 25.8 µM | 47.9 µM |  | 32.7 µM | 34.2 µM | 38.6 µM | 26.1 µM | 60.2 µM | 22.5 µM |  |  |  |  |  |  |  |  |  |  |  |
| O=C(CNC(=O)OCc1ccccc1)Oc1ccccc1 | > 100 µM | > 100 µM | > 100 µM |  | > 100 µM | > 100 µM | > 100 µM | > 100 µM | > 100 µM |  |  |  |  |  |  |  |  |  |  |  |
| CC1Cc2c(N)nc(NN)nc2NC1=O (stereo not given) | > 100 µM | > 100 µM | > 100 µM |  | > 100 µM | > 100 µM | > 100 µM |  | > 100 µM |  |  |  |  |  |  |  |  |  |  |  |
| Nc1ccc(C(=O)c2ccc(N)c(Br)c2)cc1Br | 46.1 µM | 11.6 µM | 32.6 µM | 14.7 µM | > 100 µM | 0.517 µM | 0.623 µM | 3.95 µM | 2.2 µM | 0.518 | 0.461 | 0.425 | 0.299 | 0.903 | 0.234 | 0.256 µM | 0.277 | 0.393 |  |  |
| CC1(CO)OC1COCc1ccccc1 (stereo not given) | > 100 µM |  | > 100 µM |  | > 100 µM | > 100 µM |  |  | > 100 µM |  |  |  |  |  |  |  |  |  |  |  |
| COc1ccc2c([nH]c3cc(O)c(C)cc32)c1C=O | > 25 µM | > 25 µM | > 25 µM |  | > 25 µM | > 25 µM | > 25 µM |  | > 25 µM |  |  |  |  |  |  |  |  |  |  |  |
| CN(NC(=O)CC(=O)NN(C)C(=S)c1ccccc1)C(=S)c1ccccc1 | > 100 µM | > 100 µM | > 100 µM | > 100 µM | > 100 µM | > 100 µM | > 100 µM |  | > 100 µM | > 66.7 |  |  | > 55.7 | > 100 |  | 69.9 µM |  |  |  |  |
| C[C@@H]1O[C@@H](O[C@@H]2[C@@H](O)[C@H](OCCc3ccc(O)c(O)c3)O[C@H](COC(=O)/C=C/c3ccc(O)c(O)c3)[C@H]2O)[C@H](O)[C@H](O)[C@H]1O |  | 75.3 µM | > 100 µM | > 100 µM | > 100 µM | > 100 µM | > 100 µM |  | > 100 µM |  | 36.1 | > 100 | 98.3 | 68.7 | 13 | > 100 µM |  | > 100 | > 100 | > 100 |
| CC(C)=CC(=O)Oc1ccc([N+](=O)[O-])cc1 | > 100 µM | > 100 µM | > 100 µM | 53.8 µM | > 100 µM | > 100 µM | 14.8 µM | > 100 µM | > 100 µM |  |  |  |  |  |  |  |  |  |  |  |
| O=C1CCCCCCCCCCC(=O)C2CCOCCOCCOCCC1Cc1cccc(n1)C2 | > 100 µM | > 100 µM | > 100 µM | > 100 µM | > 100 µM | > 100 µM | > 100 µM | > 100 µM | > 100 µM |  |  |  |  |  |  |  |  |  |  |  |
| CC(=O)NC1=C(Nc2ccc(C)cc2)C(=O)c2ccccc2C1=O | > 75 µM | 48.5 µM | > 75 µM | > 75 µM | 44 µM | 45.7 µM |  | > 75 µM | 45.3 µM |  |  |  |  |  |  |  |  |  |  |  |
| CC(=O)OCC1OC(OC2CC3C(C)(C)C(OC(C)=O)CC[C@]3(C)C3CCC45CC4(CC[C@H]5C(C)CC(O)[C@@H](O)C(C)(C)O)[C@]23C)C(O)C(O)C1O (stereo not given in full) | 13.9 µM and 22.5 µM | 13.8 µM and 21.7 µM | 11.6 µM and 24.8 µM | 13.4 µM and 17.2 µM | 13.2 µM and 19.1 µM | 13.3 µM and 19.3 µM | 7.17 µM and 7.74 µM | 13.2 µM and 35.6 µM | 14 µM and 3.95 µM | 8.43 |  | 12.4 | 6.07 |  |  |  | 19.6 | 1.93 |  |  |
| CCOc1cc2c(cnc3c4cc(OC)c(OC)cc4ccc23)cc1OC | > 100 µM | > 100 µM | > 100 µM | > 100 µM | > 100 µM | > 100 µM | > 100 µM | > 100 µM | > 100 µM |  |  |  |  |  |  |  |  |  |  |  |
| COc1ccc(C(=O)C(c2ccc(OC)cc2)C2(O)C(=O)Nc3c(C)cc(Cl)cc32)cc1 (stereo not given) | > 100 µM | > 100 µM | > 100 µM |  | > 100 µM | > 100 µM | > 100 µM | > 100 µM | > 100 µM |  |  |  |  |  |  |  |  |  |  |  |
| c1nc2cscc2c2cscc12 | > 100 µM | > 100 µM | > 100 µM | > 100 µM | > 100 µM | > 100 µM | > 100 µM | > 100 µM |  |  |  |  |  |  |  |  |  |  |  |  |
| COc1ccc(/C=C\c2cc(OC)c(OC)c(OC)c2)cc1OC(=O)C(N)CCC(=O)O (stereo not given) |  |  | > 100 µM |  | > 100 µM |  |  |  |  | 0.000112 | 0.000425 |  |  |  | 0.000393 | 0.00114 µM and 0.000248 µM |  |  | > 100 | > 100 |
| COc1ccc(/C=C2\CN(C(=O)C(Cl)Cl)C/C(=C\c3ccc(OC)c(OC)c3)C2=O)cc1OC | > 100 µM | 0.103 µM | > 100 µM | 1.98 µM |  |  | 0.697 µM |  | 1.6 µM | 0.0495 | 0.0306 | 2.46 | 0.368 |  |  | 0.231 µM |  | 0.307 | 0.361 | > 100 |
| Clc1ccc(-n2nnc(C3=NCCCN3)c2-c2ccccc2)cc1 | > 100 µM | > 100 µM | > 100 µM | > 100 µM | > 100 µM | > 100 µM | > 100 µM | > 100 µM | > 100 µM |  |  |  |  |  |  |  |  |  |  |  |
| COC(=O)/C=C(C)/C=C/c1cc(C(C)=O)c(C)o1 | > 100 µM | > 100 µM | > 100 µM | > 100 µM |  | > 100 µM | > 100 µM |  |  |  |  |  |  |  |  |  |  |  |  |  |
| CC(=O)[CH-]C(=O)c1ccccc1.CC(=O)[CH-]C(=O)c1ccccc1.CC(=O)[CH-]C(=O)c1ccccc1.[Tl+3] | > 100 µM | > 100 µM | > 100 µM | > 100 µM | > 100 µM | > 75.5 µM | > 100 µM | > 100 µM | 97.7 µM | 59.3 | 28.2 | > 61.8 | 75 | 72.6 | 24.1 | > 54.7 µM | > 100 | 25.9 |  |  |
